Assay results taken from patent US9249147B2, “Tyrosine kinase inhibitors” (CHEMBRIDGE CORPORATION, priority 2008, dated 2016).
Several values for one entry are separate records, joined by “and”; a condition that tells them apart may be missing. Equal values may be shown once. Read-outs that look alike come from different tables or passages of the source.

Tests used:
[1] = Solubility in acidic aqueous formulation vehicle; assay type: physicochemical; details: pH 4-6
Description: The solubility of compound (II) in aqueous buffers has been tested at Cerep, as part of ADMET Study 13170. […] Such aqueous solubility was at least as good as or higher than a typical one for a small molecule, ATP-competitive kinase inhibitor. The compound has much higher aqueous solubility at lower pH. 20-50 mM acetic or tartaric acid (pH 4-6) was used to dissolve the compound at concentrations up to 5 mg/ml (or ˜10 mM); this type of formulation was used for our animal toxicity and PK studies. Compound (II) was also well soluble in such organic solvents as DMSO or N-methyl pyrrolidone and can be subsequently solubilized in aqueous formulations containing 2% Tween 80 or 5-20% Solutol HS15.

[2] = Acute IV toxicity in mice; assay type: in vivo; details: 1 mg/kg intravenously, 24 hour observation
[3] = Maximum Tolerated Dose toxicity study in mice; details: both, CD-1, mouse, in vivo, 14 days
Description: The toxicity study in mice (Maximum Tolerated Dose) was done with CD-1 strain of mice in groups of 50% male-50% female animals (10 animals per group) at the dosing levels of 2.5, 5, 10, and 20 mg/kg (intarperitoneal) and 5 and 10 mg/kg (peroral). Animals were dosed for 14 days, bid (the actual daily doses were twice those shown) and observed without dosing for additional 14 days. […].

ALK = ALK (Homo sapiens, UniProt Q9UM73); test: Invitrogen SelectScreen Z-lyte kinase assay, ALK; assay type: biochemical; design: purchased Invitrogen (SelectScreen service); details: 100 μM ATP
Description: To evaluate selectivity versus other kinases, inhibition of various kinases by compound (II) was determined. In particular, IC50s for TrkA, Jak2, Axl tyrosine kinases were determined using ADP Hunter (DiscoverX) kinase assay. Single point profiling of compound (II) on 50 human tyrosine kinases and 10 Ser-Thr kinases was done at Upstate/Millipore by radiometric assay. […] The subset of the 520 kinases in the human kinome that were tested was strategically selected to cover most of the therapeutically relevant tyrosine kinases and to represent major branches of serine-threonine kinases.
Compound (II) was a multitargeted tyrosine kinase (TK) inhibitor with a distinct pattern of inhibition focused on ALK, Trk family, Ros and Ret kinases. Invitrogen SelectScreen (Z-lyte assay) produced the following IC5O values for this set of kinases: ALK 9.75 nM, TrkA 1.5 nM, TrkB 1.4 nM, TrkC 1.8 nM, Ret 7.1 nM, Ros 1.8 nM (all measured at 100 μM ATP). […] About 70% of the 50 TKs tested have selectivity in excess of 50-fold for ALK and higher for Ret, Ros and Trk family members.

CYP1A2 = target: T1, CYP1A2 (Homo sapiens, UniProt P05177); test: CYP1A2 Inhibition (recombinant, CEC substrate); assay type: in vitro ADME; details: for CYP1A2 % Inhibition of Control Values, 1st/2nd/3rd: listed as CRL241, mean
T1 construct: purchased Cerep (contract assay, ADMET Study 13170)
T1 sequence (P05177 1-516): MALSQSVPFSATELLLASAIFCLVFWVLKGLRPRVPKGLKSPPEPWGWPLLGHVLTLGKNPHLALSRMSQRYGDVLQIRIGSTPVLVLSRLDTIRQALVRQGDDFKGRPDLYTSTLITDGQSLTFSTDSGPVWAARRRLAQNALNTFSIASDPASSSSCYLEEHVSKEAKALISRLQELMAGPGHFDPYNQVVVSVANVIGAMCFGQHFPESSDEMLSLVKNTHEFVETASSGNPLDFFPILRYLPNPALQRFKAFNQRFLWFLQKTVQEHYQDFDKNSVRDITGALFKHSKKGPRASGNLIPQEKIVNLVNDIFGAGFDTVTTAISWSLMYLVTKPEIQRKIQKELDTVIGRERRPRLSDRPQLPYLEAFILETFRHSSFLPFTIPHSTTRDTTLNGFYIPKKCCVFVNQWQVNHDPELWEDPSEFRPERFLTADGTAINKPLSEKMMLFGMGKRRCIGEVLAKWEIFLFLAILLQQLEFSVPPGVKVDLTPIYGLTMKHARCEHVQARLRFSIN

[4] = Pharmacokinetics study in CD-1 mice (IV, PO); assay type: in vivo; details: for MRT inf: read-out: MRT(0-∞); for concentration at 4 h: time point 4, Mean
Description: A comprehensive PK study was run in CD-1 strain of mice with IV (1 mg/kg) and PO (5 mg/kg) routes of drug delivery and analytical data collection at 10 time points over 24 hours (Medicilon, Study CRL0703).
Blood samples were collected by removing the eyeballs at pre-dose and 0.083, 0.25, 0.5, 1, 2, 4, 6, 8, and 24 hours post-dose. The plasma samples and the dose formulation were stored at −20° C. until bioanalysis.

[5] = CD-1, mouse, plasma, iv, 1 mg/kg, IV 1 mg/kg, CD-1 mice, Mean
[6] = CD-1, mouse, plasma, iv, 1 mg/kg, IV 1 mg/kg, individual animals A-D
[7] = IV 1 mg/kg, individual animals A-D, 1 mg/kg

Sequence of ALK (Q9UM73 19-1620): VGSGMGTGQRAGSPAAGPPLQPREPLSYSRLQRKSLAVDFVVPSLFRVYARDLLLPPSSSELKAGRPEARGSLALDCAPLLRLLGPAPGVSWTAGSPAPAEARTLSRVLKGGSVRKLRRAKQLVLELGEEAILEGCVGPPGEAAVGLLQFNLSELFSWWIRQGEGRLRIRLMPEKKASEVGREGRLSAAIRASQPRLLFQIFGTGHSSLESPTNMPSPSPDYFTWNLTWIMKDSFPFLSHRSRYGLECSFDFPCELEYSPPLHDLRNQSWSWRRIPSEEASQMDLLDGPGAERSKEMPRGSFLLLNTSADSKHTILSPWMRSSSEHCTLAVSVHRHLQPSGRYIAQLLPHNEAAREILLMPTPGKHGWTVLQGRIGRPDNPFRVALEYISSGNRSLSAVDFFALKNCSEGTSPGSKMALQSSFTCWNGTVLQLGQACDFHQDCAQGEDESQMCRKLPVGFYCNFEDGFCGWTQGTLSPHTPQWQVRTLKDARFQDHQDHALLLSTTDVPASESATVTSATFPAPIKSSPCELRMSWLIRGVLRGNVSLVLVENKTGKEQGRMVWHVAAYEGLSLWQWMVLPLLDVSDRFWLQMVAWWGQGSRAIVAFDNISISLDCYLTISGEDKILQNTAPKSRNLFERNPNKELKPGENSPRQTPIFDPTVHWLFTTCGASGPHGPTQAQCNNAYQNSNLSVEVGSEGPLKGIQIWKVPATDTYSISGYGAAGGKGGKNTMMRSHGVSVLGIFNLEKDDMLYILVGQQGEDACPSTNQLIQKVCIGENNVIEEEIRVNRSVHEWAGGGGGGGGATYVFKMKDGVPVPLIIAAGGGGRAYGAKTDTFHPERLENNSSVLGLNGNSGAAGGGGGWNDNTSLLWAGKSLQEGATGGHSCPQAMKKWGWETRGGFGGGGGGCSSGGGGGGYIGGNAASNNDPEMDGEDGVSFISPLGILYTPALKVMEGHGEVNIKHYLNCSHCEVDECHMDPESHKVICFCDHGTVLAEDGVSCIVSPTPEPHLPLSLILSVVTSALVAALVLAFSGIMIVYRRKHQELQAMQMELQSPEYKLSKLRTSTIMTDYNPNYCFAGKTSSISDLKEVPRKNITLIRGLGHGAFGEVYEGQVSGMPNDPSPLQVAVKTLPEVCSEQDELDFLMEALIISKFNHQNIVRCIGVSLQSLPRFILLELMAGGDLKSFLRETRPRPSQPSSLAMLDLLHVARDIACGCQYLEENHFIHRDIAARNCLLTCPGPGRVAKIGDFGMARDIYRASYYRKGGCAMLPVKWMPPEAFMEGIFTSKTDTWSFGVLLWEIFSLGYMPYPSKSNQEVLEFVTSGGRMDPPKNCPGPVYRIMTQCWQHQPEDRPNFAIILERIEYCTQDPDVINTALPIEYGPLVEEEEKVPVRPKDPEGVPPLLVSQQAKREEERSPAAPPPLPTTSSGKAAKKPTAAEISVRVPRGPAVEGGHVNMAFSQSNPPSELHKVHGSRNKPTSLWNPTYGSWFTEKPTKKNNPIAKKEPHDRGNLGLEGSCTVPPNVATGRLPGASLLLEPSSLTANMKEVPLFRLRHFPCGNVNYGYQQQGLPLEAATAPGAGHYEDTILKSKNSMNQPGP

SMILES: Cc1ccc(F)cc1C[C@H](C)Nc1cc[nH]c(=O)c1-c1nc2cc3c(cc2[nH]1)C(=O)N(CCN1CCCC1)C3 [compound (II)]
- Concentration dissolved in 20-50 mM acetic or tartaric acid [1]: up to 5 mg/ml
- Acute IV toxicity [2]: no signs of toxicity were observed
- Adverse effects at 5 and 10 mg/kg oral [3]: No adverse effects were observed
- Tolerability at 2.5 or 5 mg/kg IP [3]: safe
- Tolerability at 10 and 20 mg/kg IP [3]: exceeded MTD
- IC50 (ALK): 9.75 nM
- CYP1A2 inhibition (CYP1A2; 1 μM and 5 μM): No inhibition was detected
- CYP1A2 % Inhibition of Control Values, 1st/2nd/3rd (CYP1A2; 1.0E−06 M, Table 5B individual results): 106.6%
- CYP1A2 % Inhibition of Control Values, 1st/2nd/3rd (CYP1A2; 5.0E−06 M, Table 5B individual results): 90.3%
- activity at 1 µM (CYP1A2; recombinant CYP1A2, probe CEC, 1.0E−06 M, Table 5B individual results, read-out: CYP1A2 % Inhibition of Control Values, 1st/2nd/3rd): 110%
- activity at 5 µM (CYP1A2; recombinant CYP1A2, probe CEC, 5.0E−06 M, Table 5B individual results, read-out: CYP1A2 % Inhibition of Control Values, 1st/2nd/3rd): 92.1%
- inhibition at 1 µM (CYP1A2; recombinant CYP1A2, probe CEC, 1.0E−06 M, read-out: CYP1A2 % Inhibition of Control Values): -7%
- inhibition at 5 µM (CYP1A2; recombinant CYP1A2, probe CEC, 5.0E−06 M, read-out: CYP1A2 % Inhibition of Control Values): 10%
- AUC(0-inf) [4, 5]: 105 ng·h/mL
- Tmax [4, 5]: 4.8 min
- AUC(0-t) ([4]; CD-1, mouse, plasma, iv, 1 mg/kg, IV 1 mg/kg, CD-1 mice, Mean, read-out: AUC(0-t)): 102 ng·h/mL
- Cmax ([4]; CD-1, mouse, plasma, iv, 1 mg/kg, IV 1 mg/kg, CD-1 mice, Mean, read-out: Cmax): 186 ng/mL
- MRT inf [4, 5]: 1.36 h
- AUC(0-inf) [4, 6]: 102 ng·h/mL
- Tmax [4, 6]: 4.98 min
- AUC(0-t) ([4]; CD-1, mouse, plasma, iv, 1 mg/kg, IV 1 mg/kg, individual animals A-D, read-out: AUC(0-t)): 100 ng·h/mL
- Cmax ([4]; CD-1, mouse, plasma, iv, 1 mg/kg, IV 1 mg/kg, individual animals A-D, read-out: Cmax): 248 ng/mL
- MRT inf [4, 6]: 1.37 h
- concentration at […] ([4]; CD-1, mouse, plasma, iv, 1 mg/kg, IV 1 mg/kg, time point 0.083, Mean): 186 ng/mL
- concentration at […] ([4]; CD-1, mouse, plasma, iv, 1 mg/kg, IV 1 mg/kg, time point 0.083, individual animals A-D): 163 ng/mL
- concentration at […] ([4]; CD-1, mouse, plasma, iv, 1 mg/kg, IV 1 mg/kg, time point 0.35, Mean): 74 ng/mL
- concentration at 0.5 h ([4]; CD-1, mouse, plasma, iv, 1 mg/kg, IV 1 mg/kg, time point 0.5, Mean): 32.9 ng/mL
- concentration at 0.5 h ([4]; CD-1, mouse, plasma, iv, 1 mg/kg, IV 1 mg/kg, time point 0.5, individual animals A-D): 36.8 ng/mL
- concentration at 1 h ([4]; CD-1, mouse, plasma, iv, 1 mg/kg, IV 1 mg/kg, time point 1, Mean): 18.9 ng/mL
- concentration at 1 h ([4]; CD-1, mouse, plasma, iv, 1 mg/kg, IV 1 mg/kg, time point 1, individual animals A-D): 14.1 ng/mL
- concentration at 2 h ([4]; CD-1, mouse, plasma, iv, 1 mg/kg, IV 1 mg/kg, time point 2, Mean): 10.2 ng/mL
- concentration at 2 h ([4]; CD-1, mouse, plasma, iv, 1 mg/kg, IV 1 mg/kg, time point 2, individual animals A-D): 10.4 ng/mL
- concentration at 4 h ([4]; CD-1, mouse, plasma, iv, 1 mg/kg, IV 1 mg/kg): 5.05 ng/mL
- concentration at 6 h ([4]; CD-1, mouse, plasma, iv, 1 mg/kg, IV 1 mg/kg, time point 6, Mean): 2.18 ng/mL
- concentration at 6 h ([4]; CD-1, mouse, plasma, iv, 1 mg/kg, IV 1 mg/kg, time point 6, individual animals A-D): 2.13 ng/mL
- concentration at […] ([4]; CD-1, mouse, plasma, po, 5 mg/kg, PO 5 mg/kg, time point 0.083, Mean): 1.24 ng/mL
- concentration at […] ([4]; CD-1, mouse, plasma, po, 5 mg/kg, PO 5 mg/kg, time point 0.083, individual animals A-D): 2.07 ng/mL
- concentration at […] ([4]; CD-1, mouse, plasma, po, 5 mg/kg, PO 5 mg/kg, time point 0.35, individual animals A-D): 1.21 ng/mL
- concentration at 2 h ([4]; CD-1, mouse, plasma, po, 5 mg/kg, PO 5 mg/kg, time point 2, Mean): 1.01 ng/mL
- concentration at 2 h ([4]; CD-1, mouse, plasma, po, 5 mg/kg, PO 5 mg/kg, time point 2, individual animals A-D): 1.47 ng/mL
- concentration at 4 h ([4]; CD-1, mouse, plasma, po, 5 mg/kg, PO 5 mg/kg): 3.64 ng/mL
- concentration at 6 h ([4]; CD-1, mouse, plasma, po, 5 mg/kg, PO 5 mg/kg, time point 6, individual animals A-D): 1.34 ng/mL
- CL2 ([4]; IV 1 mg/kg, CD-1 mice, Mean): 159 mL/min/kg
- V2 ([4]; IV 1 mg/kg, CD-1 mice, Mean): 18.63 L/kg
- AUC(0-t) [4, 7]: 96.033 ng·h/mL and 110.999 ng·h/mL and 102.243 ng·h/mL
- AUC(0-∞) [4, 7]: 97.734 ng·h/mL and 116.619 ng·h/mL and 105.516 ng·h/mL
- CL2 [4, 7]: 163.5 mL/min/kg and 170.53 mL/min/kg and 142.9 mL/min/kg and 158 mL/min/kg
- Cmax [4, 7]: 144.182 ng/mL and 163.492 ng/mL and 186.531 ng/mL
- MRT(0-∞) [4, 7]: 1.295 h and 1.614 h and 1.176 h
- T1/2z [4, 7]: 1.16 h and 1.124 h and 1.81 h and 1.395 h
- V2 [4, 7]: 16.427 L/kg and 16.598 L/kg and 22.401 L/kg and 19.076 L/kg
- Plasma Concentration ([4]; IV 1 mg/kg, time point 0.083, individual animals A-D, 1 mg/kg): 186.53 ng/mL and 248.44 ng/mL and 144.18 ng/mL
- Plasma Concentration ([4]; IV 1 mg/kg, time point 0.5, individual animals A-D, 1 mg/kg): 29.12 ng/mL and 31.99 ng/mL and 33.27 ng/mL
- Plasma Concentration ([4]; IV 1 mg/kg, time point 1, individual animals A-D, 1 mg/kg): 19.36 ng/mL and 19.24 ng/mL and 22.93 ng/mL
- Plasma Concentration ([4]; IV 1 mg/kg, time point 2, individual animals A-D, 1 mg/kg): 8.73 ng/mL and 9.58 ng/mL and 12.30 ng/mL
- Plasma Concentration ([4]; IV 1 mg/kg, time point 4, individual animals A-D, 1 mg/kg): 8.09 ng/mL and 4.47 ng/mL and 3.14 ng/mL and 3.60 ng/mL
- Plasma Concentration ([4]; IV 1 mg/kg, time point 6, individual animals A-D, 1 mg/kg): 1.81 ng/mL and 3.23 ng/mL and 1.77 ng/mL
- Plasma Concentration ([4]; IV 1 mg/kg, time point 8, individual animals A-D): BLQ
- Plasma Concentration ([4]; IV 1 mg/kg, time point 24, individual animals A-D): BLQ
- Volume of distribution relative to total body water ([4]; IV, mice): 26 fold
- Plasma Concentration ([4]; PO 5 mg/kg, time point 0.083, individual animals A-D, 5 mg/kg): 2.19 ng/mL and BLQ (2×)
- Plasma Concentration ([4]; PO 5 mg/kg, time point 0.35, individual animals A-D, 5 mg/kg): BLQ
- Plasma Concentration ([4]; PO 5 mg/kg, time point 0.5, individual animals A-D): BLQ
- Plasma Concentration ([4]; PO 5 mg/kg, time point 1, individual animals A-D): BLQ
- Plasma Concentration ([4]; PO 5 mg/kg, time point 2, individual animals A-D, 5 mg/kg): 1.00 ng/mL and BLQ (2×)
- Plasma Concentration ([4]; PO 5 mg/kg, time point 4, individual animals A-D, 5 mg/kg): 6.06 ng/mL and 1.90 ng/mL and 1.22 ng/mL and 5.39 ng/mL
- Plasma Concentration ([4]; PO 5 mg/kg, time point 6, individual animals A-D, 5 mg/kg): BLQ
- Plasma Concentration ([4]; PO 5 mg/kg, time point 8, individual animals A-D): BLQ
- Plasma Concentration ([4]; PO 5 mg/kg, time point 24, individual animals A-D): BLQ
- half-life ([4]; mouse, plasma, IV 1 mg/kg, CD-1 mice, Mean, read-out: T1/2z (plasma half-life) (converted)): 1.37 h
- bioavailability ([4]; mouse, plasma, PO 5 mg/kg vs IV 1 mg/kg, CD-1 mice): < 1%
